Assay results published in US9700540B2, “Dronedarone for use in leishmaniasis, formulations and associations for use in leishmaniasis” (SANOFI, priority 2012, dated 2017).

Tests used:
[1] = system: Axenic amastigotes of L. amazonensis; assay: Growth inhibition of axenic amastigotes of L. amazonensis (SYBRGREEN DNA quantification); format: cell-based, Leishmania amazonensis; conditions: 72 hours of contact
Source text: (§1) A strain of Leishmania amazonensis (MHOM/BR/73/M2269) were used. Dronedarone hydrochloride and meglumine antimoniate were supplied by Sanofi. Amphotericin B (désoxycholate) and miltefosine were bought at Sigma-Aldrich.
1/Axenic amastigotes of L. amazonensis (isolated parasites)
(§2) The first cellular model which cultivates in a medium based on M199, allows defining the intrinsic activity of a substance on the parasite itself while the second cellular model integrates the capacity of the substance to cross the membrane of the macrophage and that of the phagolysosome. The used macrophages are cells RAW 264.7, which cultivate in medium based on DMEM with 10% of foetal serum of veal. • Determination of the IC50 of each of the molecules
(§3) Solutions of dronedarone in the DMSO, meglumine antimoniate and miltefosine in the water, and amphotericin B in an isotonic glucose solution (G5) were prepared before every experiment. The evaluations in vitro were the object of three independent experiments duplicate. The assays were realized by quantifying the parasitic DNA with the SYBRGREEN as described by Audisio and al. (Eur. J. Med. Chem., 52: 44-50, 2012) as well as by qPCR for intramacrophagic amastigotes with amplification of the alpha-tubuline of the parasite. The results obtained with both methods are similar.

[2] = system: Intramacrophagic amastigotes of L. amazonensis; assay: Growth inhibition of intramacrophagic amastigotes of L. amazonensis in RAW 264.7 (SYBRGREEN, qPCR); format: cell-based, Leishmania amazonensis
Source text: as §1
2/Intramacrophagic amastigotes of L. amazonensis (parasites hosted in macrophages, as found in dermis, during the cutaneous Leishmaniosis infection).
as §2, §3

[3] = system: macrophages (cells RAW 264.7); assay: Cytotoxicity on macrophages, Blue Trypan; format: cell-based, human
Protocol: (§4) Study of the cytotoxicity on macrophages (cells RAW 264.7)
(§5) The non-toxic maximal concentration (CMA) was determined by the technique to the Blue Trypan according to has method described in Audisio and al. (Eur. J. Med. Chem., 52: 44-50, 2012).

[4] = system: L. major's axenic amastigotes; assay: Growth inhibition of axenic amastigotes of L. major; format: cell-based, Leishmania major; conditions: 72 hours
Source text: (§6) Strains of Leishmania donovani (MHOM/ET/67/HU3) and Leishmania major (MHOM/SU/73/5-ASKH) were used for this study.
(§7) 1/Axenic amastigotes of L. donovani and L. major (isolated parasites)
(§8) The model of axenic amastigotes is cultivated in a medium based on M199 and allows defining the intrinsic activity of a substance on the parasite itself while the model of intramacrophagic amastigotes integrates the capacity of the substance to cross the membrane of the macrophage and that of the phagolysosome.
(§9) The solutions of dronedarone in the DMSO, meglumine antimoniate and miltefosine in the water, were prepared before every experiment. The evaluations in vitro were the object of three independent experiments.
(§10) The assays were realized by quantifying the parasitic DNA with the SYBRGREEN as described by Audisio and al. (Eur. J. Med. Chem., 52: 44-50, 2012).

[5] = system: intramacrophagic amastigotes of L. donovani; assay: Growth inhibition of intramacrophagic amastigotes of L. donovani in RAW 264.7; format: cell-based, Leishmania donovani
Source text: as §6
(§11) 2/Intramacrophagic amastigotes of L. donovani and L. major (parasites hosted in macrophages, as found in dermis, during the cutaneous Leishmaniosis infection).
as §8
(§12) The used macrophages are cells RAW 264.7, which cultivate in a medium based on DMEM with 10% of foetal serum of veal.
as §9, §10

[6] = system: L. major's intramacrophagic amastigotes; assay: Growth inhibition of intramacrophagic amastigotes of L. major in RAW 264.7; format: cell-based, Leishmania major
Source text: as §6, §11, §8, §12, §9, §10

[7] = Cytotoxicity on macrophages, Blue Trypan; format: cell-based, human
Protocol: as §4, §5

[8] = system: Leishmania amazonensis strains resistant to meglumine antimoniate; assay: Chemosensitivity of L. amazonensis strains resistant to meglumine antimoniate, promastigote form; format: cell-based
Protocol: In vitro study on Leishmania amazonensis strains resistant to meglumine antimoniate (Glucantime®)
On Leishmania amazonensis strains resistant to_meglumine antimoniate (IC50=200 mM) under promastigote form, chemosensitivity to dronedarone is similar that one observed on strains that are not resistant to meglumine antimoniate (active principle of Glucantime®).

[9] = system: axenic amastigotes of L. donovani; assay: Growth inhibition of axenic amastigotes of L. donovani; format: cell-based; conditions: Leishmania donovani, 72 hours
Source text: as §6, §7, §8, §9, §10

[10] = RAW 264.7 macrophages, Blue Trypan
[11] = Leishmania amazonensis, RAW264.7, RAW 264.7, 72 hours of contact
[12] = Leishmania donovani, RAW264.7, 72 hours
[13] = Leishmania major, RAW264.7, 72 hours

Row | Molecule | IC50 [1] | IC50 ([2]; RAW 264.7, 72 hours of contact) | non-toxic maximal concentration (CMA) [3, 10] | IC50 [4] | IC50 ([5]; 72 hours) | IC50 ([6]; 72 hours) | IC50 ([1]; Leishmania amazonensis) | IC50 [2, 11] | CC50 [7] | non-toxic maximal concentration (CMA) ([3]; human) | chemosensitivity compared with strains not resistant to meglumine antimoniate [8] | IC50 [9] | IC50 ([4]; Leishmania major) | therapeutic index (CC50/IC50) [5] | IC50 [5, 12] | therapeutic index (CC50/IC50) [6] | IC50 [6, 13]
1 | C[C@@H]1[C@H](O)[C@@H](C)/C=C/C=C/C=C/C=C/C=C/C=C/C=C/[C@H](O[C@@H]2O[C@H](C)[C@@H](O)[C@H](N)[C@@H]2O)C[C@@H]2O[C@](O)(C[C@@H](O)C[C@@H](O)[C@H](O)CC[C@@H](O)C[C@@H](O)CC(=O)O[C@H]1C)C[C@H](O)[C@H]2C(=O)O [amphotericin B] | 0.031 ± 0.002 µM | 0.047 ± 0.005 µM | 6.25 µM |  |  |  |  |  |  |  |  |  |  |  |  |  | 
2 | meglumine antimoniate | 908 ± 159 µM | 134 ± 10.4 µM | > 200 µM | > 1000 µM | 390 ± 40.5 µM | 348 ± 79.9 µM |  |  |  |  |  |  |  |  |  |  | 
3 | CCCCc1oc2ccc(NS(C)(=O)=O)cc2c1C(=O)c1ccc(OCCCN(CCCC)CCCC)cc1 [dronedarone, 2-n-Butyl-3-[4-(3-di-n-butylaminopropoxy)benzoyl]-5-methylsulphonamidobenzofuran] |  |  |  |  |  |  | 0.34 ± 0.06 µM | 0.5 ± 0.22 µM | > 12.5 µM | 12.5 µM | similar | 47.4 ± 6.27 µM | 2.55 ± 0.51 µM | > 7 | 1.67 ± 0.1 µM | > 9 | 1.32 ± 0.12 µM
4 | CCCCCCCCCCCCCCCCOP(=O)([O-])OCC[N+](C)(C)C [miltefosine] |  |  |  |  |  |  | 0.9 ± 0.2 µM | 1.87 ± 0.032 µM |  | 50 µM |  | 13 ± 1.25 µM | 5.57 ± 1.5 µM |  | 0.88 ± 0.1 µM |  | 0.72 ± 0.11 µM
